These results are taken from patent publication EP0684766B1, “HERBICIDAL COMPOSITIONS” (Hoechst Schering AgrEvo GmbH, priority 1993, dated 1994).

The test system of one experiment is Stellaria media. Kind of experiment: Post-emergent field test on winter cereals, % control of weeds. To be noted: for % Control STEME: post-emergent.
A further experiment has as its system Matricaria chamomilla. The description is as above. To be noted: for % Control MATCH: post-emergent.
The subject of the next experiment is Galium aparine. Described as above. To be noted: for % Control GALAP: post-emergent.
In a further experiment the test system is Viola arvensis. The experiment is described as above. To be noted: for % Control VIOLA: post-emergent.
In the next experiment the test system is plants. Kind of experiment: Herbicidal activity of the phosphonate applied on its own. In kind it is in vivo.
[1] abbreviates: 15 g ai/ha, evaluation 30 days after application.
Where [2] appears, read: 24 g ai/ha, evaluation 15 days after application.
Setting [3] is: 48 g ai/ha, evaluation 15 days after application.
Where [4] appears, read: 48 g ai/ha, evaluation 30 days after application.
The mark [5] stands for this setting: 95 g ai/ha, evaluation 15 days after application.
[6] abbreviates: 10 g ai/ha, evaluation 15 days after application.
Where [7] appears, read: Stellaria media, post-emergence, 360 h, read-out: % Control STEME.
Setting [8] is: Matricaria chamomilla, post-emergence, 360 h, read-out: % Control MATCH.
Where [9] appears, read: Galium aparine, post-emergence, 360 h, read-out: % Control GALAP.
[10] abbreviates: Viola arvensis, post-emergence, 360 h, read-out: % Control VIOLA.
Where [11] appears, read: Stellaria media, post-emergence, 720 h, read-out: % Control STEME.
The mark [12] stands for this setting: Matricaria chamomilla, post-emergence, 720 h, read-out: % Control MATCH.
Where [13] appears, read: Galium aparine, post-emergence, 720 h, read-out: % Control GALAP.
[14] abbreviates: Viola arvensis, post-emergence, 720 h, read-out: % Control VIOLA.

Description for Galium aparine: (§1) The Examples are field tests carried out post-emergently in the Autumn on winter cereals. The compositions are evenly applied to the plants as suspensions using a water amount of 500 litres per hectare. […] The evaluation of the individual components (a) and (b) as well as their mixtures was carried out on a scale where 0 is no damage and 100 is complete destruction of the plants.
Description for Matricaria chamomilla: as §1
Description for Stellaria media: as §1
Description for Viola arvensis: as §1

As for `COC(=O)c1ccccc1S(=O)(=O)NC(=O)N(C)c1nc(C)nc(OC)n1`, the “% Control STEME” value in the experiment on Stellaria media (setting [1]) turned out to be 78%. Further, in the experiment with Matricaria chamomilla (setting [1]), the “% Control MATCH” value was found to be 88%. In the experiment with Galium aparine (setting [1]), the “% Control GALAP” value is 47%. Moreover, the “% Control VIOLA” value in the experiment on Viola arvensis (setting [1]) is 40%.

Take `CCCCC(CC)COP(=O)(CC(CC)CCCC)OCC(CC)CCCC` (stereo not shown) [(a), O,O-bis(2-ethylhexyl)(2-ethylhexyl)phosphonate]: the “% Control STEME” value with Stellaria media (setting [2]), with Stellaria media (setting [3]), in the experiment with Stellaria media (setting [4]) and in the experiment with Stellaria media (setting [5]) was 0% each time. In addition, the “% Control MATCH” value in the experiment on Matricaria chamomilla (setting [2]), in the experiment on Matricaria chamomilla (setting [3]), with Matricaria chamomilla (setting [4]) and in the experiment on Matricaria chamomilla (setting [5]) was 0% in each case. Also, the “% Control GALAP” value with Galium aparine (setting [2]), with Galium aparine (setting [3]), with Galium aparine (setting [4]) and in the experiment with Galium aparine (setting [5]) was 0% each time. Also, the herbicidal activity result in the experiment with plants is given as “no herbicidal activity”. Further, the “% Control VIOLA” value in the experiment with Viola arvensis (setting [3]), with Viola arvensis (setting [4]) and in the experiment on Viola arvensis (setting [5]) was 0% each time.

Take `C#CCN1C(=O)COc2cc(F)c(N=c3snc4n3CC(C)(C)C4)cc21` [(b1), 6-(6,7-dihydro-6,6-dimethyl-3H,5H-pyrrolo[2,1-c][1,2,4]thiadiazol-3-ylidenimino)-7-fluoro-4-(2-propynyl)-2H-1,4-benzoxazin-3(4H)-one]: in the experiment on Stellaria media (setting [6]), the “% Control STEME” value came out at 70%. In addition, in the experiment with Matricaria chamomilla (setting [6]), the “% Control MATCH” value is listed as 50%. The “% Control GALAP” value with Galium aparine (setting [6]) turned out to be 47%.

With `C#CCN1C(=O)COc2cc(F)c(N3C(=O)C4CCCCN4C3=O)cc21` (stereo not shown) [(b2), 2-[7-fluoro-3-oxo-4-(2-propynyl)-3,4-dihydro-2H-1,4-benzoxazin-6-yl]perhydroimidazo[1,5-a]pyridine-1,3-dione], the pest or weed control at 15 g/ha came out at 27% with Stellaria media (setting [7]), 90% in the experiment with Matricaria chamomilla (setting [8]), 35% with Galium aparine (setting [9]) and 37% with Viola arvensis (setting [10]).

Turning to `CCc1nc2c(Cl)cc(F)c(N3C(=O)C4=C(CCCC4)C3=O)c2s1` [(b3), N-(4-chloro-2-ethyl-6-fluorobenzothiazol-7-yl)-1-cyclohexene-1,2-dicarboximide], the pest or weed control at 15 g/ha is 20% in the experiment with Stellaria media (setting [7]), 99% with Matricaria chamomilla (setting [8]), 33% in the experiment on Galium aparine (setting [9]) and 83% with Viola arvensis (setting [10]).

As for `COc1cc(OC)nc(NC(=O)NS(=O)(=O)N(C)S(C)(=O)=O)n1` [(b4), 3-[4,6-dimethoxypyrimidin-2-yl)-1-(N-methyl-N-methylsulfonyl-aminosulfonyl)urea], the pest or weed control at 12 g/ha in the experiment on Stellaria media (setting [11]) turned out to be 40%; in the experiment with Matricaria chamomilla (setting [12]), 55%; in the experiment with Galium aparine (setting [13]), 42%; in the experiment with Viola arvensis (setting [14]), 20%.

For `CC(C)c1ccc(NC(=O)N(C)C)cc1` [(b6), isoproturon], the pest or weed control at 750 g/ha came out at 55% with Stellaria media (setting [11]), 83% in the experiment on Matricaria chamomilla (setting [12]), 13% in the experiment with Galium aparine (setting [13]) and 30% in the experiment on Viola arvensis (setting [14]).

In the case of `Cc1ccc(NC(=O)N(C)C)cc1Cl` [(b7), chlorotoluron], the pest or weed control at 750 g/ha in the experiment on Stellaria media (setting [11]) turned out to be 85%; in the experiment with Matricaria chamomilla (setting [12]), 88%; with Galium aparine (setting [13]), 15%; in the experiment on Viola arvensis (setting [14]) it was 23%.

Turning to `CCOC(=O)Cn1c(=O)sc2cccc(Cl)c21` [(b8), benazolin-ethyl], the pest or weed control at 200 g/ha in the experiment with Stellaria media (setting [11]) was 88%; in the experiment with Galium aparine (setting [13]), 18%; in the experiment with Viola arvensis (setting [14]) it was 22%.

With `O=C(O)CNCP(=O)(O)O` [(b9), glyphosate], the pest or weed control at 50 g/ha stood at 25% in the experiment on Stellaria media (setting [11]), 28% in the experiment with Matricaria chamomilla (setting [12]), 20% with Galium aparine (setting [13]) and 10% with Viola arvensis (setting [14]).

As to `COC(=O)c1cc(Oc2ccc(Cl)cc2Cl)ccc1[N+](=O)[O-]` [bifenox], the pest or weed control at 500 g/ha with Stellaria media (setting [7]) came to 15%; in the experiment with Matricaria chamomilla (setting [8]) it was 63%; in the experiment with Galium aparine (setting [9]), 78%; with Viola arvensis (setting [10]), 95%.

With `COc1nc(C)nc(=NC(=O)NS(=O)(=O)c2ccccc2C(=O)O)[nH]1` [metsulfuron], the pest or weed control at 3 g/ha in the experiment on Stellaria media (setting [11]) came to 96%; with Matricaria chamomilla (setting [12]), 97%; in the experiment on Galium aparine (setting [13]), 10%; in the experiment on Viola arvensis (setting [14]), 50%.
